Like-named read-outs stand apart in the source and are kept apart here.
Legend:
[1] = Plasma pharmacokinetics in monkeys (extended single-dose and repeated-dose study); type: in vivo; details: monkey, iv, male monkeys, 10 mg/kg-dose group, extended single-dose study and repeated-dose study (first day), average
Procedure: (§1) Cynomolgus monkey (3 males per group and 3 females per group) under neither anesthesia nor unrestrained condition were repeatedly and intravenously given TMS-007 (preparation of a sodium-salt thereof) at a dose of 3, 10 and 30 mg/kg (continuously over 30 minutes) once daily for two weeks. The day after completion of repeated administration, the monkeys were subjected to autopsy. As a result, NOAEL of the toxicity test of cynomolgus monkeys by repeated administration was determined to be 10 mg/kg or more in both male and female groups.
(§2) Cmax and AUC0-24 values when TMS-007 was administered to rats and monkeys were as follows.

[2] = system: cerebral infarction patients; test: Phase II single dose study for cerebral infarction patients: safety; type: in vivo
Procedure: (§3) Randomized, double blind, placebo control, single dose, intravenous administration, parallel between groups and dose escalation regimen
(§4) Cerebral infarction patients within 12 hours from onset are used as subjects. Test subjects (90 patients: first cohort: 9, second cohort: 27, third cohort: 54) are determined in accordance with the following selection criteria and exclusion criteria.
To patients with acute cerebral infarction within 12 hours after onset, TMS-007 (SMTP-7 sodium salt preparation)) or a placebo were administered intravenously once (bolus over 1 minute+continuous injection over 30 minutes).
The frequency of occurrence of symptomatic intracranial hemorrhage with NIHSS score worsening of 4 or more points up to 24 hours after administration of TMS-007

[3] = system: cerebral infarction patients; test: Phase II single dose study: mRS on Day 90 after administration; type: in vivo, human; details: for Odds ratio, rate of obtaining outcome of mRS0-2: Day 90 after administration
Procedure: as §3, §4
(§5) To patients with acute cerebral infarction within 12 hours after onset, TMS-007 (SMTP-7 sodium salt preparation)) or a placebo were administered intravenously once (bolus over 1 minute+continuous injection over 30 minutes). The ratio of number of patients to which an active drug (TMS-007 sodium salt preparation) is to be administered relative to the number of patients to which a placebo is to be administered is set at 2:1 in the first and second cohorts and 1:1 in the third cohort as shown in Table 1 below.
(§6) • Safety (e.g., extracranial hemorrhage, major hemorrhage) up to Day 7 after administration • Symptomatic intracranial hemorrhage and non-symptomatic intracranial hemorrhage within 24 hours after administration • Value of mRS on Day 90 after administration • A rate of recanalization observed in an MRA image of 24 hours after administration • PK (concentration of unchanged form of TMS-007, Cmax, AUC) when TMS-007 was administered
In the FAS group, to mRS evaluation of individual dose groups (mRS 0-1 is assigned 1, mRS 2-6 is assigned 0) Day 90 after administration (Day 90), a logistic model using response, dose groups (TMS-007-combined group and placebo group), mRS on the base line, NIHSS score, age, blood pressure (systolic blood pressure) as explanatory variables was applied, odds ratio and 95% confidence interval of the TMS-007-combined group relative to the placebo group were estimated. The same estimation was carried out by using TMS-007 dose groups as the dose groups relative to the placebo group. More specifically, the odds ratios of individual TMS-007 dose groups relative to the placebo group and 95% confidence interval were estimated.

[4] = Plasma pharmacokinetics in rats (repeated-dose study); type: in vivo; details: rat, iv, male rats, 12 mg/kg-dose group, initial day of repeated-dose study, average
Procedure: (§7) Rats (12 males and 12 females) under neither anesthesia nor unrestrained condition were repeatedly and intravenously given TMS-007 (preparation of a sodium-salt thereof) at a dose of 2.4, 12 and 60 mg/kg (continuously over 30 minutes) once daily for two weeks. The day after completion of repeated administration, the rats were subjected to autopsy. As a result, NOAEL of the toxicity test of rats by repeated administration was determined to be 60 mg/kg or more.
as §2

[5] = system: healthy adult males; test: Phase I test for healthy persons: safety and tolerance; type: in vivo, human
Procedure: (§8) Phase I test (placebo-control randomized double-blind test) for healthy adult males was carried out. Five cohorts each was constituted of 8 persons (active drug was administered to 6 person and a placebo was administered to 2 person) were used in the test. TMS-007 (SMTP-7 sodium salt preparation) or a placebo was administered intravenously once at a dose of 0.05, 0.25, 1, 3, and 6 mg/kg (equivalent) over 31 minutes (bolus over 1 minute+continuous administration over 30 minutes). The subjects determined to be eligible by a screening test were hospitalized the day before administration. Day 3 from completion of administration, the subjects were allow to leave the hospital. Day 7 from completion of administration, post (follow-up) examination was carried out for safety, tolerance and PK in the period up to Day 7.

[6] = Phase I test for healthy persons: pharmacokinetics; type: in vivo, human; details: for Cmax / AUC(0-t): iv; for AUC(0-t): read-out: AUC0-24 (converted)
Procedure: as §8

[7] = Toxicity test by two-week repeated administration to cynomolgus monkeys; details: both sexes, cynomolgus monkey, in vivo, male and female, intravenous over 30 minutes once daily for two weeks, 3, 10 and 30 mg/kg
Procedure: as §1

[8] = Phase II single dose study: pharmacokinetics (plasma TMS-007 concentration); type: in vivo, human; details: for concentration at 31 min / concentration at 2 h: human, plasma, intravenous, patients, read-out: plasma TMS-007 concentration (mean±standard deviation); for concentration at 31 min: 31 minutes after administration; for concentration at 2 h: 2 hours after the administration
Procedure: as §5, §6
In the PK analysis set, the dose groups except the placebo group were subjected to counting/analysis. The plasma TMS-007 concentrations (original scale value, mean±standard deviation) of the TMS-007 (1, 3, 6 mg/kg) groups (hereinafter described in the same order) 31 minutes after administration of a study drug were 7.294±1.472, 29.28±8.425 and 52.19±12.76 μg/mL, respectively; the plasma TMS-007 concentrations 2 hours after the administration were 0.1379±0.09777, 0.8970±0.5752 and 3.033±2.924 μg/mL, respectively. With respect to the plasma concentration value (logarithmic conversion value) of a study drug 31 minutes after initiation of administration, difference between doses was evaluated by one-way ANOVA using a dose as a factor. As a result, p value was less than 0.0001 and difference was statistically significant
When the dose proportionality of plasma TMS-007 concentration of the investigational new drug 31 minutes after initiation of administration, was evaluated, a point estimation value (two-sided 95% confidence interval) of slope (b) of a regression equation of power model was 1.042 (0.895-1.189). From this, linearity of TMS-007 in the dose range of 1 to 6 mg/kg was confirmed (see, FIG. 11).

[9] = Toxicity test by two-week repeated administration to rats; details: both sexes, rat, in vivo, intravenous over 30 minutes once daily for two weeks, 2.4, 12 and 60 mg/kg
Procedure: as §7

[10] = system: mice, rats and monkeys; test: Pharmacological tests using mice, rats and monkeys; type: in vivo; details: dose of 1 to 10 mg/kg
Procedure: as §2

[11] = system: cerebral infarction patients observed to have occlusion; test: Phase II single dose study: recanalization rate evaluated by MRA; type: in vivo, human; details: TMS-007 administration group vs placebo group
Procedure: as §5, §6
The recanalization rate was evaluated by MRA. Patients (39 cases) observed to have occlusion at the time of enrollment and observed to be “canalized” or “partially canalized” on Day 2 were evaluated as recanalization cases. The ratio of the recanalization cases was 14/[…] cases (58.3%) in the TMS-007 administration groups and 4/15 cases (26.7%) in the placebo group. […]

[12] = TMS-007 combined group to placebo group, Day 90, FAS
[13] = male, human, blood, 0.05 mg/kg single i.v. over 31 minutes
[14] = male, human, blood, 0.25 mg/kg single i.v. over 31 minutes
[15] = male, human, blood, 1 mg/kg single i.v. over 31 minutes
[16] = male, human, blood, 3 mg/kg single i.v. over 31 minutes
[17] = male, human, blood, 6 mg/kg single i.v. over 31 minutes

CC(C)=CCC/C(C)=C/CC[C@]1(C)Oc2c(c(O)cc3c2CN(CCC[C@@H](C(=O)O)N2Cc4c(cc(O)c5c4O[C@@](C)(CC/C=C(\C)CCC=C(C)C)[C@@H](O)C5)C2=O)C3=O)C[C@@H]1O [TMS-007, (S)-2,5-bis((2S,3S)-2-((E)-4,8-dimethylnona-3,7-dien-1-yl)-3,5-dihydroxy-2-methyl-7-oxo-3,4,7,9-tetrahydropyrano[2,3-e]isoindol-8(2H)-yl)pentanoic acid]
Cmax [1]: 45.8 to 58.6 µg/mL
AUC(0-t) ([1]; read-out: AUC0-24): 32200 to 40200 ng·h/mL
occurrence of major hemorrhage ([2]; human, in vivo): not observed
symptomatic intracranial hemorrhage ([2]; human, in vivo): not observed
frequencies of adverse event, serious adverse event, side effect, serious side effect, adverse event leading to discontinuation vs placebo (Fisher's exact test) ([2]; individual TMS-007 groups and combined group, up to Day 90): not statistically significant
symptomatic intracranial hemorrhage with NIHSS score worsening of 4 or more points ([2]; up to 24 hours after administration, safety analysis set, TMS-007 groups (1, 3, 6 mg/kg)): not observed
Estimated value (logistic model, dose group) for mRS 0-1 ([3]; 1 mg/kg to placebo group, Day 90, FAS): −2.425
Odds ratio, rate of obtaining outcome of mRS0-2 ([3]; 1 mg/kg): 0.292
Estimated value (logistic model, dose group) for mRS 0-1 ([3]; 3 mg/kg to placebo group, Day 90, FAS): −0.726
Odds ratio, rate of obtaining outcome of mRS0-2 ([3]; 3 mg/kg): 0.585
Estimated value (logistic model, dose group) for mRS 0-1 ([3]; 6 mg/kg to placebo group, Day 90, FAS): −1.207
Odds ratio, rate of obtaining outcome of mRS0-2 ([3]; 6 mg/kg): 0.506
Estimated value (logistic model, dose group) for mRS 0-1 [3, 12]: −1.206
Odds ratio of mRS (mRS 0 and 1 assigned 1, mRS 2-6 assigned 0) [3, 12]: 0.299
Odds ratio, rate of obtaining outcome of mRS0-2 ([3]; TMS-007 combined group): 0.500
Cmax [4]: 20200 ng/mL
AUC(0-t) ([4]; read-out: AUC0-24 (converted)): 25700 ng·h/mL
Adverse events observed ([5]; single i.v. 0.05-6 mg/kg): all non-serious/mild/restorability
indication of hemorrhagic risk ([5]; single i.v. dose-escalation trial): not observed
Unchanged form of TMS-007 in urine ([6]; any one of the cohorts): not observed
time of peak blood concentration ([6]; immediately after completion of administration, all cohorts): 31 min
half-life ([6]; male, human, blood, intravenous, regardless of the dose (0.05-6 mg/kg), read-out: half-lives in blood): 10 to 15 min
Cmax [6, 13]: 346 ng/mL
AUC(0-t) [6, 13]: 252 ng·h/mL
Cmax [6, 14]: 1860 ± 150 ng/mL
AUC(0-t) [6, 14]: 1380 ng·h/mL
Cmax [6, 15]: 6700 ng/mL
AUC(0-t) [6, 15]: 5020 ng·h/mL
Cmax [6, 16]: 20300 ng/mL
AUC(0-t) [6, 16]: 16000 ng·h/mL
Cmax [6, 17]: 49900 ± 5200 ng/mL
AUC(0-t) [6, 17]: 38800 ng·h/mL
NOAEL at 2 weeks [7]: ≥ 10 mg/kg
concentration at 31 min ([8]; 1 mg/kg): 7290 ± 1470 ng/mL
concentration at 2 h ([8]; 1 mg/kg): 138 ± 97.8 ng/mL
concentration at 31 min ([8]; 3 mg/kg): 29300 ± 8420 ng/mL
concentration at 2 h ([8]; 3 mg/kg): 897 ± 575 ng/mL
concentration at 31 min ([8]; 6 mg/kg): 52200 ± 12800 ng/mL
concentration at 2 h ([8]; 6 mg/kg): 3030 ± 2920 ng/mL
slope (b) of regression equation of power model, dose proportionality (two-sided 95% confidence interval) ([8]; plasma concentration 31 minutes after initiation of administration, 1 to 6 mg/kg): 1.042 (0.895-1.189)
NOAEL at 2 weeks [9]: ≥ 60 mg/kg
medicinal effects [10]: reduction of the area of infarction and improvement of neurological symptoms
odds ratio of recanalization [11]: 4.23
